# In PMC8704707 (Pharmaceuticals, 2021):
# Where “and” joins values, the source holds several entries; their conditions need not be identical. Equal entries are not always repeated. Where two headings read alike, the source gives them in different places.
# Key:
# HepG2 cells [1] = test: LDH release assay (CytoTox 96), membrane integrity; settings: read-out: EC50 LDH release assay
# [2] = system: four Gram-positive and four Gram-negative bacterial strains; test: Antibacterial microdilution broth method, whole panel; format: cell-based
# [3] = system: eight human pathogenic fungi; test: Antifungal microdilution broth method, whole panel; format: cell-based; settings: not reported in Table 2, read-out: MIC, all fungal strains tested
# [4] = target: BuChE from equine serum (EqBuChE) (Equus caballus, UniProt P81908); test: biochemical
# Sequence of BuChE from equine serum (EqBuChE) (P81908 whole entry): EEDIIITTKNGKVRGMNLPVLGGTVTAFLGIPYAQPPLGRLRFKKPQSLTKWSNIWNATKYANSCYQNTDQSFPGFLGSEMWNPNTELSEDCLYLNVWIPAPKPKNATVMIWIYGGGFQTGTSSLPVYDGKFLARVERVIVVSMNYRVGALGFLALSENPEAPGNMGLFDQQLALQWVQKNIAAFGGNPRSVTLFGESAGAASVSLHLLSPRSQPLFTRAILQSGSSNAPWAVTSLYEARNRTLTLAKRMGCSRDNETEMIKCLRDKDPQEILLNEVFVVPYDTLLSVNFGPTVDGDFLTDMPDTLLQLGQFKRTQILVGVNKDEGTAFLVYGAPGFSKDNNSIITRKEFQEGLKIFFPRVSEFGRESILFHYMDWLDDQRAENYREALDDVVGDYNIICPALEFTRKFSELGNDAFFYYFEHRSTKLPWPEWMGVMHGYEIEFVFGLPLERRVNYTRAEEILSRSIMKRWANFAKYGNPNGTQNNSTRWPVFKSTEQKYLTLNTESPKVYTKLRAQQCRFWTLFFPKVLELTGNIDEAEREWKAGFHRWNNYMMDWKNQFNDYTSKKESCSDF
# HepG2 cells [5] = system: HepG2 cells
# Protocol: (§1) Cytotoxicity of the tested compounds was measured using the standard hepatic cell line HepG2. The used CellTiter 96® assay is based on the reduction of tetrazolium dye (MTS) in living cells to formazan, which is then determined colorimetrically.
# in vitro [6] = settings: human
# in vitro [7] = settings: human; for IC50 at 24 h: HepG2 cells
# Protocol: as §1
# [8] = target: AChE from electric eel (EeAChE) (Electrophorus electricus, UniProt O42275); test: biochemical; format: biochemical
# Sequence of AChE from electric eel (EeAChE) (O42275 24-633): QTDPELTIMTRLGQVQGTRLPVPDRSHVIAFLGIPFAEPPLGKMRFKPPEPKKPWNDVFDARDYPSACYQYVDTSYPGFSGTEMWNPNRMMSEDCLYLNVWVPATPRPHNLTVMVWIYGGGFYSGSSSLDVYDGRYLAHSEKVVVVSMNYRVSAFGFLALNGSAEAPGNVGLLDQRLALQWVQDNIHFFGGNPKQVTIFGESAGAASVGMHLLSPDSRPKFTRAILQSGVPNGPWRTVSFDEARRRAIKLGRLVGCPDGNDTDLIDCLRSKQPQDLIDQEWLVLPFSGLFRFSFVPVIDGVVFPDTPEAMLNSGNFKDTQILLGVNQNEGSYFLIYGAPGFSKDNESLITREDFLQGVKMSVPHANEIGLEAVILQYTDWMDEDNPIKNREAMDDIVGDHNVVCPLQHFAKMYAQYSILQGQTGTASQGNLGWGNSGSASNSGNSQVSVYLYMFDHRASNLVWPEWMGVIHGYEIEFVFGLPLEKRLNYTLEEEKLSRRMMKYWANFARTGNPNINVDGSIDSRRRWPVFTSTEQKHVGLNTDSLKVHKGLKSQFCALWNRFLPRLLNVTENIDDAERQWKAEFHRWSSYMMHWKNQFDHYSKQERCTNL
# [9] = system: methicillin-resistant Staphylococcus aureus ATCC 43300; test: Antibacterial microdilution broth method (EUCAST); format: cell-based; settings: ATCC 43300 / MRSA
# [10] = system: Staphylococcus epidermidis ATCC 12228; test: Antibacterial microdilution broth method (EUCAST); format: cell-based
# [11] = system: Acinetobacter baumannii ATCC 19606; test: Antibacterial microdilution broth method (EUCAST); format: cell-based
# [12] = system: Klebsiella pneumoniae ATCC 10031; settings: for MIC KP 24 h: 24 h incubation; for MIC KP 48 h: 48 h incubation
# [13] = system: Enterococcus faecalis ATCC 29212; test: Antibacterial microdilution broth method (EUCAST); format: cell-based
# [14] = system: Pseudomonas aeruginosa ATCC 27853; test: Antibacterial microdilution broth method (EUCAST); format: cell-based
# [15] = system: Escherichia coli ATCC 25922; test: Antibacterial microdilution broth method (EUCAST); format: cell-based
# [16] = system: Staphylococcus aureus ATCC 29213; test: Antibacterial microdilution broth method (EUCAST); format: cell-based
# [17] = system: Trichophyton interdigitale ATCC 9533; test: microbe, parasite or virus in culture; format: cell-based
# Candida krusei ATCC 6258 = test: microbe, parasite or virus in culture; format: cell-based; settings: Pichia kudriavzevii
# [18] = system: Candida parapsilosis ATCC 22019; test: microbe, parasite or virus in culture; format: cell-based; settings: Lodderomyces parapsilosis
# [19] = system: Candida tropicalis ATCC 750; test: microbe, parasite or virus in culture; format: cell-based
# [20] = system: Candida albicans ATCC 24443; test: microbe, parasite or virus in culture; format: cell-based
# [21] = read-out: MIC, all bacterial strains tested
# [22] = mean ± SD, n = three independent experiments, BTCh 40 µM, read-out: IC50 BuChE
# [23] = mean ± SD, n = three independent experiments, ATCh 40 µM, read-out: IC50 AChE
# [24] = ATCC12228, 24 h, read-out: MIC SE 24 h
# [25] = ATCC12228, 48 h, read-out: MIC SE 48 h
# [26] = read-out: IC50 cytotoxicity towards HepG2 cell line, CellTiter 96, 24 h incubation
# [27] = ATCC19606, 24 h, read-out: MIC ACI 24 h
# [28] = ATCC19606, 48 h, read-out: MIC ACI 48 h
# [29] = ATCC29212, 24 h, read-out: MIC EF 24 h
# [30] = ATCC29212, 48 h, read-out: MIC EF 48 h
# [31] = ATCC27853, 24 h, read-out: MIC PA 24 h
# [32] = ATCC27853, 48 h, read-out: MIC PA 48 h
# [33] = ATCC25922, 24 h, read-out: MIC EC 24 h
# [34] = ATCC25922, 48 h, read-out: MIC EC 48 h
# [35] = ATCC29213, 24 h, read-out: MIC SA 24 h
# [36] = ATCC29213, 48 h, read-out: MIC SA 48 h
# [37] = ATCC9533, 72 h, read-out: MIC TI 72 h
# [38] = ATCC9533, 120 h, read-out: MIC TI 120 h
# [39] = ATCC6258, 24 h, read-out: MIC CK 24 h
# [40] = ATCC6258, 48 h, read-out: MIC CK 48 h
# [41] = ATCC22019, 24 h, read-out: MIC CP 24 h
# [42] = ATCC22019, 48 h, read-out: MIC CP 48 h
# [43] = ATCC750, 24 h, read-out: MIC CT 24 h
# [44] = ATCC750, 48 h, read-out: MIC CT 48 h
# [45] = ATCC24443, 24 h, read-out: MIC CA 24 h
# [46] = ATCC24443, 48 h, read-out: MIC CA 48 h
Structure (SMILES),"EC50 (HepG2 cells [1]; HepG2, 24 h incubation)",MIC [3],"IC50 [4, 22]",EC50 at 24 h (in vitro [6]; HepG2 cells),IC50 at 24 h (in vitro [7]),Selectivity AChE/BuChE [8],"IC50 [8, 23]","MIC ([9]; 24 h, read-out: MIC MRSA 24 h)","MIC ([9]; 48 h, read-out: MIC MRSA 48 h)","MIC [10, 24]","MIC [10, 25]","MIC [11, 27]","MIC [11, 28]",MIC KP 24 h [12],MIC KP 48 h [12],"MIC [13, 29]","MIC [13, 30]","MIC [14, 31]","MIC [14, 32]","MIC [15, 33]",further results
"NC(N)=NN=C1C(=O)Nc2ccccc21 [Compound 1p, 2-(2-Oxoindolin-3-ylidene)hydrazine-1-carboximidamide]",130 µM,≥ 500 µM,< 20 µM and 17.5 µM,> 100 µM,> 500 µM,1.03,17.9 ± 0.9 µM,–,–,–,–,–,–,–,–,–,–,–,–,–,"MIC [2, 21]: ≥ 500 µM; Type of inhibition of BuChE [4]: mixed inhibition; Cytotoxicity in HepG2 in words (HepG2 cells [5]; range of tested concentrations up to 500 µM): no significant cytotoxicity; Type of inhibition of AChE [8]: mixed inhibition"
"NC(=S)N/N=C/c1ccc([N+](=O)[O-])o1 [Compound 3e, (E)-2-[(5-Nitrofuran-2-yl)methylene]hydrazine-1-carbothioamide]",5.25 µM,–,> 500 µM,< 6 µM,> 29 µM,<0.07,33.16 ± 0.06 µM,62.5 µM,62.5 µM,31.2 µM,62.5 µM,> 500 µM,> 500 µM,62.5 µM,62.5 µM,125 µM,125 µM,> 500 µM,> 500 µM,125 µM,"IC50 (HepG2 cells [5]; [26]): 29.8 µM; MIC [15, 34]: 250 µM; MIC [16, 35]: 62.5 µM; MIC [16, 36]: 62.5 µM"
"[H]/N=C(\N)NN=Cc1ccc([N+](=O)[O-])o1 [Compound 1n, (E)-2-[(5-Nitrofuran-2-yl)methylene]hydrazine-1-carboximidamide]",3.55 µM,≥ 500 µM,–,–,–,0.12,–,125 µM,125 µM,62.5 µM,125 µM,250 µM,500 µM,250 µM,250 µM,500 µM,500 µM,500 µM,500 µM,62.5 µM,"IC50 ([4]; IC50 BuChE): 204 ± 13.2 µM; IC50 (HepG2 cells [5]; human): 10.4 µM; EC50 at 24 h (in vitro [6]): < 6 µM; IC50 (in vitro [7]): < 11 µM; IC50 [8]: 24.2 ± 0.75 µM; Type of inhibition of AChE [8]: mixed inhibition; MIC [15, 34]: 125 µM; MIC [16, 35]: 62.5 µM; MIC [16, 36]: 125 µM"
"[H]/N=C(\N)NN=Cc1cc(I)cc(I)c1 [Compound 2c, (E)-2-(3,5-Diiodobenzylidene)hydrazine-1-carboximidamide]",5.44 µM,≥ 500 µM,85.5 ± 1.46 µM,< 6 µM,< 11 µM,0.34,29 ± 1.19 µM,15.6 µM,15.6 µM,7.8 µM,7.8 µM,250 µM,250 µM,62.5 µM,62.5 µM,31.2 µM,31.2 µM,250 µM,250 µM,62.5 µM,"MIC ([2]; read-out: MIC against staphylococci): 31.2 to 125 µM; IC50 (HepG2 cells [5]; [26]): 9.84 µM; MIC [15, 34]: 62.5 µM; MIC [16, 35]: 15.6 µM; MIC [16, 36]: 15.6 µM"
"[H]/N=C(\NN=Cc1cc(I)cc(I)c1O)N[N+](=O)[O-] [Compound 2f, (E)-2-(2-Hydroxy-3,5-diiodobenzylidene)-N-nitrohydrazine-1-carboximidamide]",–,≥ 500 µM,> 500 µM,–,–,–,34.78 ± 0.04 µM,–,–,–,–,–,–,–,–,–,–,–,–,–,"MIC [2, 21]: ≥ 500 µM"
"CC(=O)Oc1c(I)cc(I)cc1/C=N/NC(=N)N [Compound 2a, (E)-2-[(2-Carbamimidoylhydrazineylidene)methyl]-4,6-diiodophenyl acetate]",30.4 µM,–,< 20 µM and 4.52 µM,> 20 µM,> 29 µM,4.54,20.5 ± 0.48 µM,125 µM,125 µM,250 µM,250 µM,500 µM,500 µM,250 µM,250 µM,250 µM,250 µM,> 500 µM,> 500 µM,250 µM,"MIC [17, 37]: 62.5 µM; MIC [17, 38]: 125 µM; MIC (Candida krusei ATCC 6258; [39]): 500 µM; MIC (Candida krusei ATCC 6258; [40]): 500 µM; Type of inhibition of BuChE [4]: mixed inhibition; IC50 (HepG2 cells [5]; [26]): 31.3 µM; MIC [18, 41]: 500 µM; MIC [18, 42]: 500 µM; MIC [19, 43]: 500 µM; MIC [19, 44]: 500 µM; MIC [20, 45]: 125 µM; MIC [20, 46]: 125 µM; Type of inhibition of AChE [8]: mixed inhibition; MIC [15, 34]: 250 µM; MIC [16, 35]: 125 µM; MIC [16, 36]: 125 µM"
"N=C(N)NNCc1cc(I)cc(I)c1O [Compound 2d, 2-(2-Hydroxy-3,5-diiodobenzyl)hydrazine-1-carboximidamide]",–,–,41.5 ± 1.45 µM,–,–,1.10,45.7 ± 1.7 µM,–,–,–,–,–,–,–,–,–,–,–,–,–,"MIC [17, 37]: 62.5 µM; MIC [17, 38]: 62.5 µM; MIC [2, 21]: ≥ 500 µM; MIC (Candida krusei ATCC 6258; [39]): > 125 µM; MIC (Candida krusei ATCC 6258; [40]): > 125 µM; MIC [18, 41]: > 125 µM; MIC [18, 42]: > 125 µM; MIC [19, 43]: > 125 µM; MIC [19, 44]: > 125 µM; MIC [20, 45]: > 125 µM; MIC [20, 46]: > 125 µM"
"[H]/N=C(\N)NN=Cc1cc(I)cc(I)c1O [Compound 1m, (E)-2-(2-Hydroxy-3,5-diiodobenzylidene)hydrazine-1-carboximidamide]",21.3 µM,≥ 500 µM,< 20 µM and 3.57 µM,> 20 µM,> 29 µM,–,29 ± 2.49 µM,–,–,–,–,–,–,–,–,–,–,–,–,–,"MIC [2, 21]: ≥ 500 µM; IC50 (HepG2 cells [5]; [26]): 56.5 µM"
"Cl.N=C(NN)N/N=C/c1cc(I)cc(I)c1O [Compound 2e, (E)-Hydrazineyl[2-(2-hydroxy-3,5-diiodobenzylidene)hydrazineyl]methaniminium chloride]",–,–,–,> 100 µM,> 100 µM,–,–,125 µM,125 µM,31.2 µM,31.2 µM,> 125 µM,> 125 µM,>125 µM,>125 µM,> 125 µM,> 125 µM,> 125 µM,> 125 µM,> 125 µM,"EC50 (HepG2 cells [1]): 132 µM; MIC [17, 37]: 125 µM; MIC [17, 38]: 125 µM; MIC (Candida krusei ATCC 6258; [39]): 125 µM; MIC (Candida krusei ATCC 6258; [40]): 125 µM; Type of inhibition of BuChE [4]: mixed inhibition; IC50 ([4]; read-out: IC50 BuChE): 1.69 ± 0.17 µM; IC50 (HepG2 cells [5]; read-out: IC50 cytotoxicity towards HepG2 cell line): 120 µM; MIC [18, 41]: 125 µM; MIC [18, 42]: 125 µM; MIC [19, 43]: 125 µM; MIC [19, 44]: 125 µM; MIC [20, 45]: 125 µM; MIC [20, 46]: 125 µM; IC50 [8]: 28.2 ± 0.98 µM; MIC [15, 34]: > 125 µM; MIC [16, 35]: 62.5 µM; MIC [16, 36]: 125 µM"
